Laboratory results taken from ChEMBL document CHEMBL3763050, “Fragment-Based Discovery of 2-Aminoquinazolin-4(3H)-ones As Novel Class Nonpeptidomimetic Inhibitors of the Plasmepsins I, II, and IV” (J Med Chem, 2016).
pEC50, pIC50: −log10 of the molar value.

How the values were obtained:
Cathepsin D = Cathepsin D (Homo sapiens, UniProt P07339); experiment: Inhibition of CatD (unknown origin) preincubated for 30 mins followed by DABCYL-Glu-Arg-Nle-Phe-Leu-Ser-Phe-Pro-EDANS substrate addition by FRET assay
Cathepsin D, sequence (P07339 65-162 limits assumed): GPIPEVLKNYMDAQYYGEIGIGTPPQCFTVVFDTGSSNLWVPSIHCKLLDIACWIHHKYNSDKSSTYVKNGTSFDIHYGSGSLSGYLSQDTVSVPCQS
Cathepsin D, sequence (P07339 169-412 limits assumed): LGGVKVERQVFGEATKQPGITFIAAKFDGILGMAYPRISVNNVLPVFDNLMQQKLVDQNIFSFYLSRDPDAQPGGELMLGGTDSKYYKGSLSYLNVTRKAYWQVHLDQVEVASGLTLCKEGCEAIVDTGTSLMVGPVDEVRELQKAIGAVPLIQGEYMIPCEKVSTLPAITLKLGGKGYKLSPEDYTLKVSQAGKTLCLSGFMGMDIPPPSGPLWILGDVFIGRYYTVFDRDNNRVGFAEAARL

Plasmepsin II = Plasmepsin II (Plasmodium falciparum, UniProt P46925); experiment: Inhibition of Plasmodium falciparum plasmepsin 2 preincubated for 30 mins followed by DABCYL-Glu-Arg-Nle-Phe-Leu-Ser-Phe-Pro-EDANS substrate addition by FRET assay
Plasmepsin II, sequence (P46925 whole entry): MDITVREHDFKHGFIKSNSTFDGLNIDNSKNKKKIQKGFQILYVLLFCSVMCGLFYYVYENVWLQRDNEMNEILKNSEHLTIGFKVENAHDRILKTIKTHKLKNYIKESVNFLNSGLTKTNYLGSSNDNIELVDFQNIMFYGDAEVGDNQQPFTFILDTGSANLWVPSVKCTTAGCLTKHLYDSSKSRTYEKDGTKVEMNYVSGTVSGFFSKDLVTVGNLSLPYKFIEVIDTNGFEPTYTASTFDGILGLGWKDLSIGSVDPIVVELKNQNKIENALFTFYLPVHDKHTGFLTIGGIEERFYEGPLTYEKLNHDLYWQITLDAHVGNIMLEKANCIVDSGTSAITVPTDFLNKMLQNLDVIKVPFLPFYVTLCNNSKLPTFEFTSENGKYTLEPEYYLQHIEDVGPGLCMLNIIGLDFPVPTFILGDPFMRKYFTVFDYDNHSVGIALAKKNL

Plasmodium falciparum = experiment: Antimalarial activity against Plasmodium falciparum 3D7 after 96 hrs by SYBR Green 1 assay; type: functional, organism-based; settings: 3D7, 96 h
Plasmepsin I = Plasmepsin I (Plasmodium falciparum, UniProt P39898); experiment: Inhibition of Plasmodium falciparum plasmepsin 1 preincubated for 30 mins followed by DABCYL-Glu-Arg-Nle-Phe-Leu-Ser-Phe-Pro-EDANS substrate addition by FRET assay
Plasmepsin I, sequence (P39898 whole entry): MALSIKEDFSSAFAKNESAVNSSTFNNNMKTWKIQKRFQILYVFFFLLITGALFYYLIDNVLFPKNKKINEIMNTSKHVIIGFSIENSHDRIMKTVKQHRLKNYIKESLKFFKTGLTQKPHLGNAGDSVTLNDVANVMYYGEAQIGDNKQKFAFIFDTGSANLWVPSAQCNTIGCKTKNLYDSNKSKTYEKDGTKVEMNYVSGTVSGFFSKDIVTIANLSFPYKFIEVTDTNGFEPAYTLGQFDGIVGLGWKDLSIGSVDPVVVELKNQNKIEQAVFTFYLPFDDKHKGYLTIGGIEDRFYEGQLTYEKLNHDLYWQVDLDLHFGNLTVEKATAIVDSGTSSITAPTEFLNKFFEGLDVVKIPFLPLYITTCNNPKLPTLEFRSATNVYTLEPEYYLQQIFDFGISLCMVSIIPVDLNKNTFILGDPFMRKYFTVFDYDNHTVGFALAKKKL

[1] = Inhibition of Plasmodium falciparum plasmepsin 4 preincubated for 30 mins followed by DABCYL-Glu-Arg-Nle-Phe-Leu-Ser-Phe-Pro-EDANS substrate addition by FRET assay

SMILES | pIC50 (Cathepsin D) | pIC50 (Plasmepsin II) | pEC50 (Plasmodium falciparum) | pIC50 (Plasmepsin I) | pIC50 [1]
Nc1nc2cc(-c3ccc(CCCc4ccccc4)cc3)ccc2c(=O)n1C[C@@H]1CC[C@H](c2ccccc2)O1 (racemic) | 5.22 | 5.00 | 5.92 | 5.49 | 6.89
Nc1nc2cc(-c3ccccc3)ccc2c(=O)n1C[C@@H]1CCCO1 (racemic) | 4.27 | 5.64 | – | 5.22 | 5.89
COC(=O)CCc1ccc(-c2ccc3c(=O)n(C[C@@H]4CC[C@H](c5ccccc5)O4)c(N)nc3c2)cc1 (racemic) | 5.85 | 5.59 | – | 6.57 | 6.40
CCCCc1cccc(-c2ccc3c(=O)n(C[C@@H]4CC[C@H](c5ccccc5)O4)c(N)nc3c2)c1 (racemic) | 5.52 | 5.70 | – | 6.10 | 6.00
Nc1nc2cc(-c3ccc(CCc4ccccc4)cc3)ccc2c(=O)n1C[C@@H]1CC[C@H](c2ccccc2)O1 (racemic) | 3.66 | 5.70 | – | 5.70 | 6.15
Nc1nc2cc(-c3ccc(CCCCc4ccccc4)cc3)ccc2c(=O)n1C[C@@H]1CC[C@H](c2ccccc2)O1 (racemic) | 4.04 | 4.49 | 5.41 | 5.19 | 6.40
CC(C)CCc1ccc(-c2ccc3c(=O)n(C[C@@H]4CC[C@H](c5ccccc5)O4)c(N)nc3c2)cc1 (racemic) | < 4.00 | 6.22 | – | 5.85 | 6.40
Nc1nc2cc(-c3ccccc3)ccc2c(=O)n1CC1CCC2(CCCCC2)O1 (racemic) | 5.05 | 5.28 | – | 5.70 | 5.52
Nc1nc2cc(-c3ccccc3)ccc2c(=O)n1C[C@H]1CC[C@@H](c2ccccc2)O1 | 5.34 | 6.47 | – | 5.92 | 6.30
Nc1nc2cc(-c3ccccc3)ccc2c(=O)n1C[C@@H]1CC[C@H](c2ccccc2)O1 (racemic) | 4.86 | 6.24 | – | 5.89 | 6.22
CCCCCc1ccc(-c2ccc3c(=O)n(C[C@@H]4CC[C@H](c5ccccc5)O4)c(N)nc3c2)cc1 (racemic) | 5.30 | 6.82 | 5.96 | 6.52 | 7.00
Nc1nc2cc(-c3ccc(C4CCCCC4)cc3)ccc2c(=O)n1C[C@@H]1CC[C@H](c2ccccc2)O1 (racemic) | 5.07 | 5.62 | – | 6.30 | 6.10
CC(C)[C@H]1CC[C@@H](Cn2c(N)nc3cc(-c4ccccc4)ccc3c2=O)O1 (racemic) | 4.60 | 5.80 | – | 5.64 | 5.82
Nc1nc2cc(-c3ccc(CCC4CCCCC4)cc3)ccc2c(=O)n1C[C@@H]1CC[C@H](c2ccccc2)O1 (racemic) | 4.00 | 4.97 | – | 5.03 | 5.92
Nc1nc2cc(-c3ccccc3)ccc2c(=O)n1C[C@@H]1CC[C@H](c2ccc3ccccc3c2)O1 (racemic) | 4.71 | 5.60 | – | 5.43 | 5.89
CCCCc1ccc(-c2ccc3c(=O)n(C[C@@H]4CC[C@H](c5ccccc5)O4)c(N)nc3c2)cc1 (racemic) | 5.66 | 6.64 | 6.05 | 6.52 | 6.70
Nc1nc2cc(-c3ccccc3)ccc2c(=O)n1CC1CC(c2ccccc2)CO1 (mixture of isomers) | < 3.70 | 4.90 | – | 4.28 | 4.70
Nc1nc2cc(-c3ccccc3)ccc2c(=O)n1C[C@@H]1CC[C@@H](c2ccccc2)O1 (racemic) | 5.05 | 5.54 | – | 5.62 | 5.96
Nc1nc2cc(-c3ccc(CCC4CC4)cc3)ccc2c(=O)n1C[C@@H]1CC[C@H](c2ccccc2)O1 (racemic) | 5.49 | 6.40 | – | 6.32 | 6.52
Nc1nc2cc(-c3ccccc3)ccc2c(=O)n1C[C@@H]1CC[C@H](c2ccccc2)O1 | 4.66 | 5.52 | – | 5.34 | 5.57
Nc1nc2cc(-c3ccc(CCCCCc4ccccc4)cc3)ccc2c(=O)n1C[C@@H]1CC[C@H](c2ccccc2)O1 (racemic) | 4.28 | 4.92 | – | 4.44 | 5.70
